Columns and labels:
mice = details: literature (Elovitz et al., 2006); cited from earlier work
human TLR2 = biological target: T1, human TLR2 (Homo sapiens, UniProt O60603+Q15399); test: IL-8 expression from HEK293/hTLR2 cells by ELISA; format: cell-based; details: 24-h incubation, varying concentrations
T1 construct: host or cells: HEK293
Method: (§1) HEK293 or HEK293/hTLR2 and HEK293/hTLR4/MD2/CD14, were seeded into 96-well plates at a density of 50,000 cells/well and allowed to grow overnight. The cells were then incubated with and N-palmitoyl(S)-[2,3-bis(palmitoyloxy)-(2, RS)-propyl]-Cys-Scr-Lys4 (Pam3CSK4), ultrapure Escherichia coli LPS, or fresh cultures of F. nucleatum 12230 at the indicated doses followed by a 24-h incubation. The supernatant was harvested and centrifuged and the amount of IL-8 secreted was determined by ELISA.
(§2) Immunlon flat-bottom 96-well microliter plates (Thermo Electron, Mass) were coated with goat anti-human IL-8 Ab (4 μg/ml; R&D System) in 100 μl of coating buffer (0.05 M carbonate buffer (pH 9.6)). After overnight incubation at 4° C., the plates were washed six times with washing buffer, i.e., 0.05% Tween 20 in PBS (Sigma-Aldrich), followed by an overnight incubation in blocking buffer (1% BSA in PBS) at 4° C. The plates were washed four times before an aliquot of 100 μl of diluted mammalian cell culture supernatant or human IL-8 (R&D Systems, Minn) were added to each well and incubated overnight at 4° C. The plates were washed, followed by 3-h incubation with polyclonal rabbit anti-human 11,-8 Ab (1/1000; Endogen) at room temperature. […] The light absorbance was measured at 450 nm on a Bio-Rad Model 680 microplate reader. […]

human TLR4/MD2/CD14 = biological target: T2, human TLR4/MD2/CD14 (Homo sapiens, UniProt O00206+Q9Y6Y9); test: IL-8 expression from HEK293/hTLR4/MD2/CD14 cells by ELISA; format: cell-based; details: 24-h incubation, varying concentrations
T2 construct: host or cells: HEK293
T2 sequence (O00206 24-839): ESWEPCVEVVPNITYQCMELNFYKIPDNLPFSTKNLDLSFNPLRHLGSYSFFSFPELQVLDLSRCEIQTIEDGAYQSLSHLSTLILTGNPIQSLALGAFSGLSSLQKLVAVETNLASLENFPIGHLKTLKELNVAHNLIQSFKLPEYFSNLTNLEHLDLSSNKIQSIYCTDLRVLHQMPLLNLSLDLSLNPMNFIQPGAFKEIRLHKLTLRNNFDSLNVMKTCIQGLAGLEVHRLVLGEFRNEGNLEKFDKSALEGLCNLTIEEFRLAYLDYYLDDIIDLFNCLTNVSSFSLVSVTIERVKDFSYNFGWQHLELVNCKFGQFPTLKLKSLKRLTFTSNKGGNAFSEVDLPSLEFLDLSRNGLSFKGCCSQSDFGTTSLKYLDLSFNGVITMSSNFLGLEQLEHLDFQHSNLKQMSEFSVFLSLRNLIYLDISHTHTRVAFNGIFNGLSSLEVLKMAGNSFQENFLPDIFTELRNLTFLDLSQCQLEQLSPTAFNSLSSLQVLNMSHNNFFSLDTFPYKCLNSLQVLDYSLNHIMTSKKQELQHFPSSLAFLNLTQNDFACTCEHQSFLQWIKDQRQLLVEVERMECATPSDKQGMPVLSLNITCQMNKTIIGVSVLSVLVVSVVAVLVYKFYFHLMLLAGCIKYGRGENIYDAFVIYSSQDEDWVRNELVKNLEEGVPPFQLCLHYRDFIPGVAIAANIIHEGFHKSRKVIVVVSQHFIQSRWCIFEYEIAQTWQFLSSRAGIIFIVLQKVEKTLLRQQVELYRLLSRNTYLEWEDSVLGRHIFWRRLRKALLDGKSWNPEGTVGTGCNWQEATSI
T2 sequence (Q9Y6Y9 19-160): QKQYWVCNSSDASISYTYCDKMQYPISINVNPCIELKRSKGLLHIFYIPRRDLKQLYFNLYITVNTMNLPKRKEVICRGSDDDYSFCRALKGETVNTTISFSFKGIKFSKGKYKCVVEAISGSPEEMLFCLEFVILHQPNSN
Method: as §1, §2

T1 sequence (O60603 21-784): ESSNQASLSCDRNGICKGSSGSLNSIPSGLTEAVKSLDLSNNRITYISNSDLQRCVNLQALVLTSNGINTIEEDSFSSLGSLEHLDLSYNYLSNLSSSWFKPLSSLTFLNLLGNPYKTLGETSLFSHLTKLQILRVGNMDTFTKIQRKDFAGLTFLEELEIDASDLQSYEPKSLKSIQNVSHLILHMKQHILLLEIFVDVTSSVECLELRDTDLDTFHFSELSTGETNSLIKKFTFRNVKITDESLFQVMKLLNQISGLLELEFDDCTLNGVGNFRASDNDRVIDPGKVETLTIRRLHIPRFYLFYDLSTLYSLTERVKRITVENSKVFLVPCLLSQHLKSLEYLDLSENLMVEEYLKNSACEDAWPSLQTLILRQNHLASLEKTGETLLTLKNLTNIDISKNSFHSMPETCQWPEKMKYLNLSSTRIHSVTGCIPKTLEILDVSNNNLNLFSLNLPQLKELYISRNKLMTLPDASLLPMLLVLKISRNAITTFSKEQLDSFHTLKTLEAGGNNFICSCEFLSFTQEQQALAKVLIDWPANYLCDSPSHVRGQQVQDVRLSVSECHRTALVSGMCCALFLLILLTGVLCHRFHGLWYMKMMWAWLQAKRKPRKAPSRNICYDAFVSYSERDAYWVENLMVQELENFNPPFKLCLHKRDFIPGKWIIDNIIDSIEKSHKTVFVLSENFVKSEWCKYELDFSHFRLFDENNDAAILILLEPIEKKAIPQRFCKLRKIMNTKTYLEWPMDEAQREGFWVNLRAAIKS
T1 sequence (Q15399 25-786): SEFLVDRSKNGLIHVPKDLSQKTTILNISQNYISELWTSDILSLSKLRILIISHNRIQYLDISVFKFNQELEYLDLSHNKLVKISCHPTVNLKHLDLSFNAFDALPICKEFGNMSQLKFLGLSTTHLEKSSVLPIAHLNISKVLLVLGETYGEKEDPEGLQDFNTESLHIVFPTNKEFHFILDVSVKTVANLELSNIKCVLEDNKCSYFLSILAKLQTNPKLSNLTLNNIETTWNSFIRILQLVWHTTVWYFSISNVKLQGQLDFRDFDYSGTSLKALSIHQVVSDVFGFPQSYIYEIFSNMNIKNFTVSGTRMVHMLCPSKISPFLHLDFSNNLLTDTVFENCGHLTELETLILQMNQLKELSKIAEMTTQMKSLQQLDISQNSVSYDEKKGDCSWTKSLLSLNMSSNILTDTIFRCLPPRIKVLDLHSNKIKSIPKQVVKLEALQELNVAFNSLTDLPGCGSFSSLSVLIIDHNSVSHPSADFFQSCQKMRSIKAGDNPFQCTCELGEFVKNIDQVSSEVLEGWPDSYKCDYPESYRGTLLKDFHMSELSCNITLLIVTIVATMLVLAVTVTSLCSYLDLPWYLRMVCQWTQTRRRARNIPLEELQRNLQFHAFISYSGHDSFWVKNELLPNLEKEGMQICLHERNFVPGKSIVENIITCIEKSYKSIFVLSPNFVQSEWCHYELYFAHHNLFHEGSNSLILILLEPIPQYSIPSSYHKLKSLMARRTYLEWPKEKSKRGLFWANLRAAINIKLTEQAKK

activation of TLR4 (IL-8 expression) (human TLR4/MD2/CD14) | Molecule | maternal morbidity in mice (mice) | activation of TLR2 (IL-8 expression) (human TLR2)
 | CCCCCC(=O)O[C@]1(C(C)=O)CC[C@H]2[C@@H]3CCC4=CC(=O)CC[C@]4(C)[C@H]3CC[C@@]21C [17-α hydroxyprogesterone caproate] | significant maternal morbidity | 
not vice versa | N-palmitoyl(S)-[2,3-bis(palmitoyloxy)-(2, RS)-propyl]-Cys-Scr-Lys4 [Pam3CSK4] |  | only activated their respective receptors

Source: patent US9012410B2, “Method of treating intrauterine inflammation” (Case Western Reserve University, priority 2006, dated 2015)
